One block for each compound: values may come before it. Active and inactive are the calls of the source. No cut-off for these calls is given here.
Key:
[1] = Cytotoxicity against human HepG2 cells assessed as cell viability at 20 uM after 24 hrs by CCK8 assay; format: toxicity, cell-based; settings: read-out: Activity
[2] = target: Proprotein convertase subtilisin/kexin type 9 (Homo sapiens) (UniProt Q8NBP7); assay: Inhibition of PCSK9 transcription in human HepG2 cells at 5 uM by AlphaLISA method; format: cell-based
HepG2 [3] = assay: Induction of LDL uptake in human HepG2 cells incubated for 3 hrs under dark condition by DiI-LDL DMEM staining based fluorescence microplate reader assay; format: functional, cell-based
[4] = target: Proprotein convertase subtilisin/kexin type 9 (Homo sapiens) (UniProt Q8NBP7); assay: Inhibition of PCSK9 transcription in human HepG2 cells by AlphaLISA method; format: cell-based
[5] = target: Proprotein convertase subtilisin/kexin type 9 (Homo sapiens) (UniProt Q8NBP7); assay: Inhibition of PCSK9 (unknown origin) promoter activity expressed in HEK293 cells co-transfected with SV40 at 5 to 10 uM incubated for 24 hrs by dual luciferase assay; format: cell-based; settings: dose 5-10 µM
HepG2 [6] = assay: Induction of LDL uptake in HNF1alpha knockdown human HepG2 cells at 5 uM incubated for 3 hrs under dark condition by DiI-LDL DMEM staining based fluorescence microplate reader assay; format: functional, cell-based
HepG2 [7] = assay: Induction of LDL uptake in human LDLR knockdown HepG2 cells at 5 uM incubated for 3 hrs under dark condition by DiI-LDL DMEM staining based fluorescence microplate reader assay; format: functional, cell-based
[8] = target: Proprotein convertase subtilisin/kexin type 9 (Homo sapiens) (UniProt Q8NBP7); assay: Inhibition of PCSK9 (unknown origin) promoter activity expressed in HEK293 cells co-transfected with SV40 incubated for 24 hrs by dual luciferase assay; format: cell-based; settings: dose 1-20 µM
HepG2 [9] = assay: Induction of LDL uptake in human PCSK9 knockdown HepG2 cells at 5 uM incubated for 3 hrs under dark condition by DiI-LDL DMEM staining based fluorescence microplate reader assay; format: functional, cell-based
HepG2 [10] = assay: Upregulation of LDLR mRNA level in human HepG2 cells by qRT-PCR analysis; format: functional, cell-based
Mus musculus [11] = assay: Downregulation of PCSK9 protein level in HFD induced C57BL/6 mouse liver at 10 to 30 mg/kg, ip administered for 3 weeks by Western blotting analysis; format: functional, organism-based; settings: dose 10-30 mg/kg
[12] = Hepatotoxicity in HFD induced C57BL/6 mouse assessed as decrease in liver index at 10 to 30 mg/kg, ip administered for 3 weeks; format: toxicity, organism-based; settings: in vivo, 504 h, dose 10-30 mg/kg
HepG2 [13] = assay: Upregulation of LDLR protein level in human HepG2 cells at 5 uM after 6 hrs by Western blotting analysis; format: functional, cell-based
[14] = Nephrotoxicity in HFD induced C57BL/6 mouse assessed as change in serum CREA level at 10 to 30 mg/kg, ip administered for 3 weeks; format: toxicity, organism-based; settings: in vivo, 504 h, dose 10-30 mg/kg
[15] = target: Proprotein convertase subtilisin/kexin type 9 (Homo sapiens) (UniProt Q8NBP7); assay: Inhibition of PCSK9 (unknown origin) promoter activity expressed in HNF1alpha knockdown HEK293 cells co-transfected with SV40 incubated for 24 hrs by dual luciferase assay; format: cell-based
[16] = Effect on HEK293 cell viability at 20 uM; format: toxicity, cell-based; settings: human, hek293, 20 µM
[17] = Nephrotoxicity in HFD induced C57BL/6 mouse assessed as change in serum UREA level at 10 to 30 mg/kg, ip administered for 3 weeks; format: toxicity, organism-based; settings: in vivo, 504 h, dose 10-30 mg/kg
HepG2 [18] = assay: Downregulation of PCSK9 mRNA level in HNF1alpha knockdown human HepG2 cells incubated for 24 hrs by qRT-PCR analysis; format: functional, cell-based
Hepatocyte [19] = assay: Downregulation of PCSK9 mRNA level in HFD treated mouse hepatocytes at 5 to 20 uM incubated for 24 hrs by qRT-PCR analysis; format: functional, cell-based; settings: dose 5-20 µM
Mus musculus [20] = assay: Hypolipidemic activity in HFD induced C57BL/6 mouse assessed as reduction in serum TG level at 10 to 30 mg/kg, ip administered for 3 weeks; format: functional, organism-based; settings: dose 10-30 mg/kg
HepG2 [21] = assay: Upregulation of LDLR mRNA level in HNF1alpha knockdown human HepG2 cells incubated for 24 hrs by qRT-PCR analysis; format: functional, cell-based
Mus musculus [22] = assay: Hypolipidemic activity in HFD induced C57BL/6 mouse assessed as reduction in serum TC level at 10 to 30 mg/kg, ip administered for 3 weeks; format: functional, organism-based; settings: dose 10-30 mg/kg
[23] = target: Hepatocyte nuclear factor 1-alpha (Homo sapiens) (UniProt P20823); assay: Binding affinity to HNF1alpha in human HepG2 cells assessed as increase in thermal stability at 10 uM after 1 hr by CETSA; format: cell-based
Chain of Hepatocyte nuclear factor 1-alpha (Homo sapiens) (P20823 whole entry): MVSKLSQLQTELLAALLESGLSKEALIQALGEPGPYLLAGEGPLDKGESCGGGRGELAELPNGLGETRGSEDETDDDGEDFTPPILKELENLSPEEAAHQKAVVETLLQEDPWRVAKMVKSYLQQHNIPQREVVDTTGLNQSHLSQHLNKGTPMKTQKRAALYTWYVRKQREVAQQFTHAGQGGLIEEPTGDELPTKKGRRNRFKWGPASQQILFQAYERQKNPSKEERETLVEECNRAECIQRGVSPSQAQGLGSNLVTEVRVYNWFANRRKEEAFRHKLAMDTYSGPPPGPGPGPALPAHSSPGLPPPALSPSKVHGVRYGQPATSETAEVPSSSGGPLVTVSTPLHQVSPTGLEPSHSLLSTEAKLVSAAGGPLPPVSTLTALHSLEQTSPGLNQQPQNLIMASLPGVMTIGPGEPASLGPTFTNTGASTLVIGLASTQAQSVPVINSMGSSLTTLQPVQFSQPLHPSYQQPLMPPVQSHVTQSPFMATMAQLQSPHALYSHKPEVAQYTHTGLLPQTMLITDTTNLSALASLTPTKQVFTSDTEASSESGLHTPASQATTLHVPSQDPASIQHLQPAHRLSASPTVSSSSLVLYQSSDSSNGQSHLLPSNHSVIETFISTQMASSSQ

HepG2 [24] = assay: Downregulation of PCSK9 protein level in human HepG2 cells at 5 uM after 3 hrs by Western blotting analysis; format: functional, cell-based
[25] = Toxicity in HFD induced C57BL/6 mouse assessed as change in food intake at 10 to 30 mg/kg, ip administered for 3 weeks; format: organism-based; settings: in vivo, 504 h, dose 10-30 mg/kg
HepG2 [26] = assay: Downregulation of PCSK9 mRNA level in human HepG2 cells by qRT-PCR analysis; format: functional, cell-based; settings: dose 1-20 µM
[27] = target: Proprotein convertase subtilisin/kexin type 9 (Homo sapiens) (UniProt Q8NBP7); assay: Inhibition of PCSK9 (unknown origin) promoter activity expressed in HNF1alpha overexpressed HEK293 cells co-transfected with SV40 incubated for 24 hrs by dual luciferase assay; format: cell-based
HepG2 [28] = assay: Upregulation of LDLR protein level in HNF1alpha knockdown human HepG2 cells at 10 uM incubated for 24 hrs by Western blotting analysis; format: functional, cell-based
Mus musculus [29] = assay: Hypolipidemic activity in HFD induced C57BL/6 mouse assessed as reduction in serum LDL-C level at 10 to 30 mg/kg, ip administered for 3 weeks; format: functional, organism-based; settings: dose 10-30 mg/kg
HepG2 [30] = assay: Downregulation of PCSK9 protein level in human HepG2 cells by Western blotting analysis; format: functional, cell-based; settings: dose 1-20 µM
HepG2 [31] = assay: Inhibition of HNF1alpha nuclear transport in human HepG2 cells at 1 to 10 uM after 24 hrs by Western blotting analysis; format: functional, cell-based; settings: dose 1-10 µM
[32] = Hepatotoxicity in HFD induced C57BL/6 mouse assessed as decrease in serum AST level at 10 to 30 mg/kg, ip administered for 3 weeks; format: toxicity, organism-based; settings: in vivo, 504 h, dose 10-30 mg/kg
[33] = Hepatotoxicity in HFD induced C57BL/6 mouse assessed as decrease in serum ALT level at 10 to 30 mg/kg, ip administered for 3 weeks; format: toxicity, organism-based; settings: in vivo, 504 h, dose 10-30 mg/kg
HepG2 [34] = assay: Downregulation of PCSK9 protein level in HNF1alpha knockdown human HepG2 cells at 10 uM incubated for 24 hrs by Western blotting analysis; format: functional, cell-based
HepG2 [35] = assay: Effect on HNF1alpha protein level in human HepG2 cells at 5 uM incubated for 24 hrs by Western blotting analysis; format: functional, cell-based
HepG2 [36] = assay: Upregulation of LDLR protein level in human HepG2 cells by Western blotting analysis; format: functional, cell-based
Mus musculus [37] = assay: Upregulation of […] protein level in HFD induced C57BL/6 mouse liver at 10 to 30 mg/kg, ip administered for 3 weeks by Western blotting analysis; format: functional, organism-based; settings: dose 10-30 mg/kg
Hepatocyte [38] = assay: Downregulation of PCSK9 protein level in HFD treated mouse hepatocytes at 5 to 20 uM incubated for 24 hrs by Western blotting analysis; format: functional, cell-based; settings: dose 5-20 µM
Mus musculus [39] = assay: Hypolipidemic activity in HFD induced C57BL/6 mouse assessed as reduction in serum VLDL-C level at 10 to 30 mg/kg, ip administered for 3 weeks; format: functional, organism-based; settings: dose 10-30 mg/kg

Compound: C=C1[C@@H](OC(C)=O)[C@H]2[C@@H](OC(C)=O)[C@](C)(OC(C)=O)C[C@]2(OC(C)=O)C(=O)[C@H](C)/C=C/C(C)(C)C(=O)[C@@H](OC(=O)C(C)C)[C@H]1OC(=O)CC
viability at 24 h, 20 µM [1]: > 95%
inhibition [2]: 28%
Activity (HepG2 [3]): Active
inhibition [4]: Dose-Dependent Effect

Compound: C=C1[C@@H](OC(C)=O)[C@H]2[C@@H](OC(C)=O)[C@@H](C)C[C@]2(OC(C)=O)C(=O)[C@H](C)/C=C/C(C)(C)C(=O)[C@@H](OC(C)=O)[C@H]1OC(C)=O
inhibition [2]: < 1%

Compound: C=C1[C@@H](OC(C)=O)[C@H]2[C@@H](OC(C)=O)[C@](C)(OC(C)=O)C[C@]2(OC(C)=O)C(=O)[C@H](C)/C=C/C(C)(C)C(=O)[C@@H](OC(C)=O)[C@H]1OC(=O)C(C)C
viability at 24 h, 20 µM [1]: > 95%
inhibition [2]: 22.3%
Activity (HepG2 [3]): Active
inhibition [4]: Dose-Dependent Effect

Compound: C=C1[C@@H](OC(C)=O)[C@H]2[C@@H](OC(C)=O)[C@](C)(OC(C)=O)C[C@]2(OC(C)=O)C(=O)[C@H](C)[C@]2(C)O[C@H]2C(C)(C)[C@H](OC(C)=O)[C@@H](OC(=O)C(C)C)[C@H]1OC(=O)C(C)C
inhibition [2]: 0.1%

Compound: C=C1[C@@H](OC(C)=O)[C@H]2[C@@H](OC(C)=O)[C@@H](C)C[C@]2(OC(C)=O)C(=O)[C@H](C)/C=C/C(C)(C)C(=O)C[C@H]1OC(C)=O
Activity (HepG2 [7]): inactive
viability at 24 h, 20 µM [1]: > 95%
inhibition [8]: Dose-Dependent Effect
Activity (HepG2 [9]): Active
Activity (HepG2 [10]): Dose-Dependent Effect
Activity (Mus musculus [11]): Active
Activity [12]: Toxic
Activity (HepG2 [13]): Active
Activity [14]: Non-Toxic
inhibition [15]: inactive
Activity [16]: Non-Toxic
Activity [17]: Non-Toxic
Activity (HepG2 [18]): inactive
Activity (Hepatocyte [19]): Active
Activity (Mus musculus [20]): Active
inhibition [2]: 36.4%
Activity (HepG2 [21]): inactive
Activity (Mus musculus [22]): Active
Activity [23]: Active
Activity (HepG2 [24]): Active
Activity [25]: Non-Toxic
Activity (HepG2 [26]): Dose-Dependent Effect
inhibition [27]: Active
Activity (HepG2 [3]): Dose-Dependent Effect
Activity (HepG2 [28]): inactive
Activity (Mus musculus [29]): Active
Activity (HepG2 [30]): Dose-Dependent Effect
inhibition (HepG2 [31]): Active
Activity [32]: Toxic
Activity [33]: Non-Toxic
Activity (HepG2 [34]): inactive
Activity (HepG2 [35]): inactive
Activity (HepG2 [6]): inactive
Activity (HepG2 [36]): Dose-Dependent Effect
Activity (Mus musculus [37]): Active
inhibition [4]: Dose-Dependent Effect
Activity (Hepatocyte [38]): Active
Activity (Mus musculus [39]): Active

The next lines start with results.

inhibition [2]: 56.1%
inhibition [5]: Active
inhibition [4]: Dose-Dependent Effect
Compound: C=C1[C@@H](OC(C)=O)[C@H]2[C@@H](OC(=O)[C@@H](C)CC)[C@@H](C)C[C@]2(OC(C)=O)C(=O)[C@H](C)/C=C/C(C)(C)[C@H](OC(C)=O)[C@@H](OC(C)=O)[C@H]1OC(C)=O
viability at 24 h, 20 µM [1]: > 95%
Activity (HepG2 [3]): Active
Activity (HepG2 [6]): Active

inhibition [2]: 3.1%
Compound: C=C1[C@@H](OC(C)=O)[C@H]2[C@@H](OC(C)=O)[C@@H](C)C[C@]2(OC(C)=O)C(=O)[C@H](C)/C=C/C(C)(C)[C@H](OC(=O)c2ccccc2)[C@@H](OC(C)=O)[C@H]1OC(C)=O
